In patent US5817766A, “Reagents for a cannabinoid immunoassay” (Roche Diagnostic Systems, Inc., priority 1995, dated 1998):

What was measured:
[1] = test system: MoAb 11E.2; assay: MIRA assay ABUSCREEN 100 TEST ONLINE KIT for cannabinoids, MoAb 11E.2; type: binding, Murine; conditions: commercial MIRA assay; (II) = 100 by definition; IgA from immunization with (VIII) alone
Description: (§1) Table 2 below illustrates how a novel clone (11A6) derived by using the triple sequential immunization procedure described herein performs in an actual commercial MIRA (Roche Diagnostic Systems, Inc., Branchburg, N.J.) assay ABUSCREEN® 100 TEST ONLINE™ KIT (Roche Diagnostic Systems, Inc., Branchburg, N.J. immunoassay) for cannabinoids. Example 20 describes the reagents contained in Roche's commercial Abuscreen® 100 Test Online™ Kit, except that the antibody has been replaced by a novel antibody according to this invention. […] Both tables also report the corresponding results using the monoclonal antibody (11E.2) derived from immunization with a single immunogen (immunogen (VIII)).
(§2) In Table 2, MoAb 11E.2 is an IgA (dimeric) antibody, while MoAB 11A6 is an IgG (monomeric) antibody. In order to agglutinate the microparticles included in the current commercial MIRA assay when 11A6 is used, inclusion of an anti-IgG antibody (commercially available, e.g., from Biodesign Int., Kennebunk, Me. 04043, USA) was required.
(§3) This example describes the reagents contained in Roche's ABUSCREEN® 100 TEST ONLINE™ KIT (Roche Diagnostic Systems, Inc., Branchburg, N.J. immunoassay) for cannabinoids.
(§4) 1. Antibody Reagent: A cannabinoid monoclonal antibody (IgG) with a secondary antibody adjusted in concentration to give the best dynamic standard curve with desired performance characteristics around the assay cutoff. This antibody is diluted in an antibody diluent containing: 50 mM HEPES, 0.1% BSA, 0.5% sodium chloride, 0.09% sodium azide and adjusted to a pH of 6.5.
(§5) 2. Microparticle Reagent: Conjugated cannabinoids derivative microparticle in a buffer containing 10 mM kPi pH 7.5 and 0.09% sodium Azide (supplied in kit).
(§6) 3. Sample Diluent: Buffer containing 50 mM PIPES pH 7.0, 2.5% PVP, 2.0% Sodium Chloride and 0.09% sodium azide (supplied in kit).
(§7) An assay using the above reagents is performed pursuant to the directions stated in the package insert for the commercially available Roche Abuscreen® Online™ 100 test kit for cannabinoids.

[2] = test system: MoAb 11A6; assay: MIRA assay ABUSCREEN 100 TEST ONLINE KIT for cannabinoids, MoAb 11A6 with anti-IgG; type: binding, Murine; conditions: commercial MIRA assay; (II) = 100 by definition; IgG from triple sequential immunization
Description: as §1, §2, §3, §4, §5, §6, §7

SMILES	CROSS REACTIVITY (%) MoAb 11E.2 [1]	CROSS REACTIVITY (%) MoAb 11A6 with anti-IgG [2]
CCCCCc1cc(O)c2c(c1)OC(C)(C)c1ccc(CO)cc1-2 [11-Hydroxycannabinol]	16%	35%
CCCCCc1cc(O)c2c(c1)OC(C)(C)[C@@H]1C[C@@H](O)C(CO)=C[C@@H]21 [(-)-8β,11-Dihydroxy-Δ^9 -THC (VII), (-)-8β,11-Dihydroxy-Δ^9 -THC]	14%	36%
CCCCCc1cc(O)c2c(c1)OC(C)(C)[C@@H]1C[C@H](O)C(C)=C[C@@H]21 [(-)-8α-Hydroxy-Δ^9 -THC (VI), (-)-8α-Hydroxy-Δ^9 -THC]	60%	71%
C=C(C)[C@@H]1CCC(C)=C[C@H]1c1c(O)cc(CCCCC)cc1O [Cannabidiol]	< 0.1%	< 0.1%
CCCCCc1cc(O)c2c(c1)OC(C)(C)[C@@H]1CCC(C)=C[C@@H]21 [(-)-Δ^9 -THC, Δ^9 -tetrahydrocannabinol]	7.6%	7.3%
CCCCCc1cc(O)c2c(c1)OC(C)(C)c1ccc(C)cc1-2 [Cannabinol]	0.6%	1.6%
CCCCCc1cc(O)c2c(c1)OC(C)(C)[C@@H]1CCC(CO)=C[C@@H]21 [(-)-11-Hydroxy-Δ^9 -THC (V), (-)-11-Hydroxy-Δ^9 -THC]	23%	32%
CCCCCc1cc(O)c2c(c1)OC(C)(C)[C@@H]1CCC(C(=O)O)=C[C@@H]21 [(-)-Δ^9-11-nor-9-COOH-THC (II), Δ^9-11-nor-9-carboxy-THC]	100%	100%
